Data reported in EP3381907A1, “SYMMETRICAL 2-AMINOPHENYL-BENZAZOLYL-5-ACETATE COMPOUNDS AND THEIR USE AS ANTI-HEPARANASE” (Leadiant Biosciences SA, priority 2017, dated 2018).

How the values were obtained:
heparanase = target: T1, heparanase (Homo sapiens, UniProt Q9Y251); experiment: AGA*IA assay: colorimetric fondaparinux cleavage assay for heparanase inhibition (WST-1); assay type: biochemical; conditions: 2.5 nM heparanase, 100 µM fondaparinux, pH 5.0, 3 h at 37°C; class symbols
T1 sequence (Q9Y251 158-543 limits assumed): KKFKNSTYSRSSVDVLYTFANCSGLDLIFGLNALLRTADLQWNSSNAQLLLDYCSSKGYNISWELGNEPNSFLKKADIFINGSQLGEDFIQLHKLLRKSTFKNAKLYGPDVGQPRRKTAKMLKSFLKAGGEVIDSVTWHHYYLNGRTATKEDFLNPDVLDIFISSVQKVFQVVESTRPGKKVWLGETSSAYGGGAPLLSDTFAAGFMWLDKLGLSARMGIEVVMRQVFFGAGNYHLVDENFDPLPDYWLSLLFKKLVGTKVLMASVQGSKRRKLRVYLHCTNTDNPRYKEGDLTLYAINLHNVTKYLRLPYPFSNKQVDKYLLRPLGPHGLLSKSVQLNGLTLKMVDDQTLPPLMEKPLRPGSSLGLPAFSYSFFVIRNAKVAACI
T1 sequence (Q9Y251 36-109 limits assumed): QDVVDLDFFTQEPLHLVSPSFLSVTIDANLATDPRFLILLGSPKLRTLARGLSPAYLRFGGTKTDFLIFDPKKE
Procedure: All compounds were tested in a simple, accurate and robust microplate assay based on the cleavage of the synthetic heparin fragment, the pentasaccharide Fondaparinux (AGA*IA). This assay was originally developed by Hammond and coworkers [Hammond E, Li CP, Ferro V. Development of a colorimetric assay for heparanase activity suitable for kinetic analysis and inhibitor screening. Anal. Biochem. 396(1), 112-116 (2010)], where Fondaparinux corresponds to the methyl glycoside of the antithrombin III (ATIII)-activating pentasaccharide sequence of heparin. Fondaparinux is cleaved by heparanase to generate a reducing disaccharide, which can be quantitatively measured via a colorimetric or a fluorescence assay, the last by the fluorescent sensor polymer-H [Schiemann S, Lühn S, Alban S. Development of both colorimetric and fluorescence heparinase activity assays using fondaparinux as substrate. Anal. Biochem. 427(1), 82-89 (2012)].
The assay measures the appearance of the disaccharide product of heparanase-catalyzed fondaparinux cleavage colorimetrically using the tetrazolium salt WST-1. Assay was essentially performed as described with minor modifications. Briefly, NUNC ELISA 96-well plates were pre-treated with a solution of 4% BSA (bovin serum albumin) in phosphate-buffered saline containing 0.05% Tween 20 (PBST), for 2 h at 37°C, then washed three times with PBST, dried by tapping on paper towel and stored at -20°C. Before use, once again, the plates were washed with PBST.
Assay was carried out with 100 µl/well of assay solution containing 40 mM sodium acetate buffer (pH 5.0), 100 µM fondaparinux, 2.5 nM heparanase and serial dilutions of test compounds (tested in triplicate). Plates were sealed with adhesive tape and incubated, in the dark, for 3 h at 37°C, followed by development with 1.69 mM of the tetrazolium salt WST-1 solution in 0.1 M NaOH, for 1 h at 60°C. Then, the absorbance at 560 nm was measured through a microplate reader (Victor 3, Perkin Elmer).
Finally, the measurements were corrected by subtracting both the reagent background and the inner absorbance value of test compound.

[1] = tested on: HT1080 (human fibrosarcoma); experiment: SRB Cell Cytotoxicity Assay, HT1080; assay type: cell-based; conditions: HT-1080, HT1080, 72h treatment, read-out: Concentration (µM) of test compounds at which the cell growth is inhibited by 50 %. HT1080
Excerpt: (§1) SRB Cell Cytotoxicity Assay is an assay based upon the quantitative staining of cellular proteins by sulforhodamine B (SRB). This assay can be used for high-throughput drug screening (Vichai & Kirkitara, Nature Protocol. 2006, 1, 112). Sulforhodamine B is an anionic aminoxanthene dye that forms an electrostatic complex with the basic amino acid residues of proteins under moderately acid conditions, which provides a sensitive linear response.
(§2) To assess a putative antiproliferative activity of the selected compounds, HT1080 (human fibrosarcoma), U87MG (human glioblastoma astrocytoma) and U2OS (human osteosarcoma) cell lines were treated for 72h, in triplicate, with increasing concentrations of heparanase inhibitors. Inhibition of cell proliferation was then measured by the classical colorimetric SRB Cell Cytotoxicity assay. Absorbance was measured by spectrophotometer at a wavelength of 510 nm and cell proliferation was determined as percent with respect to control cells (cells treated with the vehicle alone). EC50 values were then determined by GraphPad Prism.

[2] = tested on: U87MG (human glioblastoma astrocytoma); experiment: SRB Cell Cytotoxicity Assay, U87MG; assay type: cell-based; conditions: U-87 MG, 72h treatment, read-out: Concentration (µM) of test compounds at which the cell growth is inhibited by 50 %. U87MG
Excerpt: as §1, §2

[3] = tested on: U2OS (human osteosarcoma); experiment: SRB Cell Cytotoxicity Assay, U2OS; assay type: cell-based; conditions: 72h treatment, read-out: Concentration (µM) of test compounds at which the cell growth is inhibited by 50 %. U2OS
Excerpt: as §1, §2

[4] = tested on: HT1080 (human fibrosarcoma); experiment: Matrigel cell invasion assay, HT1080; assay type: cell-based
Procedure: (§3) Heparanase inhibitors were then evaluated for their activity on the invasive potential of HT1080 (human fibrosarcoma), U87MG (human glioblastoma astrocytoma) and U2OS (human osteosarcoma) human cell lines, using the Matrigel cell invasion assay which allows to assess the cell invasion ability of malignant and normal cells.
(§4) Invasion assay was performed using BioCoat cell culture inserts (BioCoat 8.0µm PET Membrane 24 Well Permeable Supports, Corning). Filters were coated with 100 µl of 300 µg/ml Matrigel dissolved in coating buffer (0.01 M Tris pH 8.0, 0.7% NaCl) (Becton-Dickinson Sciences). DMEM (Dulbecco's Modified Eagle's Medium) containing 5% FBS was added to the lower chambers. Cells were pre-treated with heparanase inhibitors for 24 h, detached and added to the upper chambers in media containing the inhibitors. Cells were allowed to invade for 24 h at 37°C in a CO2 incubator and then unmigrated cells were removed from the upper chamber with a cotton swab. The invading cells were fixed, stained with 0.1% crystal violet for 10 min at room temperature, photographed and counted under inverted microscope.
(§5) Test compounds were analyzed at fixed concentration (2.5 µM) for several fields, in duplicates. Activity of test compounds was compared to the reference compound. Activity of most interesting compound was confirmed in a second cell invasion assay. Data were expressed as the percent invasion with respect to cell migration through uncoated insert membrane (see Table 3 below)
(§6) Table 3. […] In Invasion assay, data were expressed as the percent invasion (range) with respect to cell migration through uncoated insert membrane. In Adhesion assay, data were expressed as the percent of adhesion with respect to the control (100%). • Legend • ++: 50-90% • + : < 50% • - : Not Active

[5] = tested on: U87MG (human glioblastoma astrocytoma); experiment: Matrigel cell invasion assay, U87MG; assay type: cell-based; parameters: key to Invasion Assay Inhibition U87MG: ++: 50-90%; +: < 50%; -: Not Active
Procedure: as §3, §4, §5, §6

[6] = tested on: U2OS (human osteosarcoma); experiment: Matrigel cell invasion assay, U2OS; assay type: cell-based; parameters: key to Invasion Assay Inhibition U2OS: ++: 50-90%; +: < 50%; -: Not Active
Procedure: as §3, §4, §5, §6

[7] = tested on: HT1080 (human fibrosarcoma); experiment: Cell adhesion assay on matrigel coated wells, HT1080; assay type: cell-based; conditions: percent of adhesion with respect to the control (100%)
Procedure: (§7) Cell surface, non-integrin molecules such as heparan sulfate proteoglycans (HSPGs) may be involved in the regulation of early adhesive stages of cell-ECM interactions. A cell adhesion assay has been employed to determine if the newly designed heparanase inhibitors were able to interfere with adhesion properties of cancer cells.
(§8) HT1080 (human fibrosarcoma) and U87MG (human glioblastoma astrocytoma) cells were treated for 18-20 h with test compounds in complete medium supplemented with 10% FCS. Then cells were collected, washed in complete medium, and added to matrigel coated wells in triplicate, at previously identified optimal seeding density, and incubated at 37 °C in complete medium for times ranging from 15 minutes to 4h, according to the cell line. After incubation, the wells were washed three times with serum-free medium and the remaining firmly attached cells were stained with crystal-violet 0.1%. Optical density was measured at 560 nm by Victor 3 (Perkin-Elmer) plate analyzer. Each experiment was repeated three times.
as §6

[8] = tested on: U87MG (human glioblastoma astrocytoma); experiment: Cell adhesion assay on matrigel coated wells, U87MG; assay type: cell-based; conditions: percent of adhesion with respect to the control (100%)
Procedure: as §7, §8, §6

Compound | IC50 (heparanase) [µM] | EC50 [1] [µM] | EC50 [2] [µM] | EC50 [3] [µM] | inhibition at 2.5 µM ([4]; HT-1080, HT1080, test compound at 2.5 µM, 24 h pre-treatment, 24 h invasion) [%] | inhibition at 2.5 µM ([5]; Homo sapiens, U-87 MG, test compound at 2.5 µM, 24 h pre-treatment, 24 h invasion) [%] | inhibition at 2.5 µM ([6]; Homo sapiens, test compound at 2.5 µM, 24 h pre-treatment, 24 h invasion) [%] | Adhesion Assay (%) HT1080 ([7]; HT1080, test compound at 2.5 µM) [%] | Adhesion Assay (%) U87MG ([8]; test compound at 2.5 µM) [%] | inhibition at 10 µM ([4]; HT-1080, HT1080, reference compound at 10 µM) [%] | Invasion Assay Inhibition U87MG ([5]; reference compound at 10 µM) | Invasion Assay Inhibition U2OS ([6]; reference compound at 10 µM) | Adhesion Assay (%) HT1080 ([7]; HT1080, reference compound at 10 µM) [%] | Adhesion Assay (%) U87MG ([8]; reference compound at 10 µM) [%]
C[C@H](NC(=O)Cc1ccc2oc(-c3ccc(NC(=O)Nc4ccc(-c5nc6cc(CC(=O)N[C@@H](C)C(=O)O)ccc6o5)cc4F)c(F)c3)nc2c1)C(=O)O [Compound 27, (2S,2'S)-2,2'-((2,2'-(((Carbonylbis(azanediyl))bis(3-fluoro-4,1-phenylene))bis(benzo[d]oxazole-2,5-diyl))bis(acetyl))bis(azanediyl))dipropionic acid] | 0.05 to 0.49 | > 10 | > 10 | > 10 | < 50 | 50 to 90 | < 50 | 90.94 | 61.10 |  |  |  |  | 
Cc1ccc(C(=O)Nc2ccc(S(=O)(=O)O)c3cc(S(=O)(=O)O)cc(S(=O)(=O)O)c23)cc1NC(=O)c1cccc(NC(=O)Nc2cccc(C(=O)Nc3cc(C(=O)Nc4ccc(S(=O)(=O)O)c5cc(S(=O)(=O)O)cc(S(=O)(=O)O)c45)ccc3C)c2)c1 [Suramin, reference compound] |  | > 10 | > 10 | > 10 |  |  |  |  |  | < 50 | - | - | 72.98 | 100
